Measurements taken from the NIST ThermoML archive (doi:10.1016/j.jct.2010.08.019).

Assay: xn = mol fraction of the nth substance listed
Details: for surface tension liquid-gas: Wilhelmy-plate method; for viscosity / mass density: 101 kPa, Liquid; for viscosity: Falling or rolling sphere viscometry; for mass density: Vibrating tube method

C1CCOCC1 [tetrahydropyran] + CC(C)CC(C)(C)C
Details | mass density, 313.15 K [kg/m3] | mass density, 323.15 K [kg/m3] | surface tension liquid-gas, 313.15 K [mN/m] | surface tension liquid-gas, 323.15 K [mN/m] | viscosity, 313.15 K [mPa·s] | viscosity, 323.15 K [mPa·s]
x1 = 0.0501 | 680.92 | 672.44 | 17.1 | 16.4 | 0.407 | 0.366
x1 = 0.1002 | 686.85 | 678.3 | 17.3 | 16.6 | 0.411 | 0.369
x1 = 0.1501 | 693.02 | 684.41 | 17.5 | 16.7 | 0.416 | 0.372
x1 = 0.1999 | 699.48 | 690.79 | 17.7 | 17 | 0.422 | 0.377
x1 = 0.2501 | 706.27 | 697.5 | 17.9 | 17.2 | 0.429 | 0.383
x1 = 0.3 | 713.35 | 704.51 | 18.1 | 17.3 | 0.437 | 0.39
x1 = 0.3499 | 720.78 | 711.86 | 18.4 | 17.5 | 0.444 | 0.398
x1 = 0.4002 | 728.64 | 719.63 | 18.6 | 17.8 | 0.453 | 0.406
x1 = 0.45 | – | 727.72 | – | 18 | – | 0.415
x1 = 0.4502 | 736.83 | – | 18.9 | – | 0.463 | –
x1 = 0.4999 | 745.4 | – | 19.1 | – | 0.473 | –
x1 = 0.5002 | – | 736.27 | – | 18.3 | – | 0.424
x1 = 0.5499 | 754.47 | – | 19.4 | – | 0.484 | –
x1 = 0.55 | – | 745.22 | – | 18.5 | – | 0.433
x1 = 0.5997 | – | 754.63 | – | 18.8 | – | 0.443
x1 = 0.6 | 764.05 | – | 19.7 | – | 0.496 | –
x1 = 0.65 | 774.13 | 764.68 | 20.1 | 19.2 | 0.509 | 0.454
x1 = 0.6998 | 784.75 | 775.17 | 20.6 | 19.6 | 0.523 | 0.466
x1 = 0.75 | 796.05 | 786.37 | 21.2 | 20.1 | 0.538 | 0.479
x1 = 0.8001 | 808 | 798.2 | 21.7 | 20.7 | 0.554 | 0.493
x1 = 0.8501 | 820.66 | 810.77 | 22.4 | 21.3 | 0.573 | 0.508
x1 = 0.9001 | 834.12 | – | 23.2 | – | 0.596 | –
x1 = 0.9002 | – | 824.1 | – | 22.1 | – | 0.523
x1 = 0.9498 | 848.37 | – | 24.1 | – | 0.624 | –
x1 = 0.95 | – | 838.27 | – | 22.9 | – | 0.541
x1 = 1 | 863.76 | 853.46 | 25.1 | 23.8 | 0.658 | 0.565
